The target of experiment [1] is T1, cGMP binding sites of GST-cGB-PDE5 fusion protein (Homo sapiens, UniProt O76074).
T1 construct: made in house; host or cells: E. coli BL21 (DE3)
Description: cGMP binding assay. To be noted: for Competition with cGMP for binding of GST-cGB-PDE5 at high concentration: 100 μM, cGMP 2 μM.

For experiment [2], the target named is T2, novel cGMP-specific PDE Peak B (Section IIB) from SW480 cells (Homo sapiens, UniProt O00408).
T2 construct: IC50 Peak B (μM); native enzyme
Briefly: Inhibition of cGMP hydrolysis by novel PDE Peak B from SW480. Type of experiment: biochemical.

The test system of experiment [3] is novel cGMP-specific PDE Peak B (Section IIB) from SW480 cells. The experiment is described as above. The format is biochemical, human.
The target in experiment [4] is T3, PDE Peak A (PDE5) from SW480 cells (Homo sapiens, UniProt O76074).
T3 construct: endogenous in cells; host or cells: SW480 colon cancer cells; DEAE-Trisacryl M fraction of the 105,000 g supernatant
Briefly: Inhibition of cGMP hydrolysis by PDE Peak A from SW480. Type of experiment: biochemical.

Experiment [5] relates to HT-29 cells. Briefly: Apoptosis and necrosis, morphological (acridine orange/ethidium bromide). Type of experiment: cell-based, human. The note with it: HT-29, treated 6 days. The source says: Following treatment with a compound, cultures can be assayed for apoptosis and necrosis by florescent microscopy following labeling with acridine orange and ethidium bromide. The method for measuring apoptotic cell number has previously been described by Duke & Cohen, “Morphological And Biochemical Assays Of Apoptosis,” Current Protocols In Immunology, Coligan et al., eds., 3.17.1-3.17.16 (1992), which is incorporated herein by reference.
For example, floating and attached cells can be collected by trypsinization and washed three times in PBS. Aliquots of cells can be centrifuged. The pellet can then be re-suspended in media and a dye mixture containing acridine orange and ethidium bromide prepared in PBS and mixed gently. The mixture can then be placed on a microscope slide and examined for morphological features of apoptosis.
Reference compounds and test compounds were analyzed for their novel PDE inhibitory activity in accordance with the protocols for the assay, supra. […] Apoptotic and necrotic cell death was determined previously (Duke and Cohen, In: Current Protocols in Immunology, 3.17.1-3.17.16, New York, John Wiley and Sons, 1992). […]
The apoptosis inducing activity for a series of phosphodiesterase inhibitors was determined. […] Apoptosis and necrosis were determined morphologically after acridine orange and ethidium bromide labeling in accordance with the assay described, supra.

Experiment [6] has as its system HT-29 cells. Briefly: Growth inhibition assay, SRB. The format is cell-based, human.
The test system of experiment [7] is Calu-6 adenocarcinoma cell line. Briefly: Cell growth, alone and in combination with vinca alkaloid. Type of experiment: cell-based, human. To be noted: Calu-6, 1-hour exposure, 0.01 mcg/ml. How it is done: Exisulind and Compound I were analyzed using two human lung cancer cell lines; H460, a large cell carcinoma with a doubling time of 16 hours, and Calu-6, an adenocarcinoma with a doubling time of 21 hours. Exisulind and Compound I were analyzed alone and in combination with the vinca alkaloid, Navelbine™ vinorelbine. The cytotoxic agents were administered for 1 hour, while exisulind and Compound I were administered for either 1 hour or given as a continuous exposure.
Cells were plated on day 0 and allowed to attach. On day 1, the cells were exposed to one of the cytotoxic agents dissolved in media pre-warmed to 37° C. and incubated at 37° C. for 1 hour. The cells were then washed twice and re-fed pre-warned media with or without either exisulind or Compound I and incubated for one hour at 37° C. After the one-hour incubation, the cells were washed twice, re-fed, and returned to the incubator; the continuous exposure cultures were not washed and re-fed. Appropriate controls were included for each condition. […] All data points were done in triplicate and the mean graphed as a percent of control growth.
Exisulind and Compound I were first dissolved in DMSO and brought to the desired concentrations by slowly adding warm media to the drug-DMSO solution to prevent precipitation.

Experiment [8] relates to cGMP and cAMP in HT-29 cells. Briefly: Cyclic nucleotide levels in HT-29 cells by radioimmunoassay. To be noted: HT-29 cells treated 30 minutes. Type of experiment: cell-based, human.
Experiment [9] relates to premalignant lesions in mouse mammary gland organ culture. Briefly: Mammary gland organ culture model. The source says:
Test compounds identified by the above methods can be tested for antineoplastic activity by their ability to inhibit the incidence of pre-neoplastic lesions in a mammary gland organ culture system. This mouse mammary gland organ culture technique has been successfully used by other investigators to study the effects of known antineoplastic agents such as certain NSAIDs, retinoids, tamoxifen, selenium, and certain natural products, and is useful for validation of the screening method of the present invention.
For example, female BALB/c mice can be treated with a combination of estradiol and progesterone daily, in order to prime the glands to be responsive to hormones in vitro. The animals are sacrificed, and thoracic mammary glands are excised aseptically and incubated for ten days in growth media supplemented with insulin, prolactin, hydrocortisone, and aldosterone. DMBA (7,12-dimethylbenz(a)anthracene) is added to medium to induce the formation of premalignant lesions. […]
The extent of the area occupied by the mammary lesions can be quantitated by projecting an image of the gland onto a digitation pad. […] The space covered by each of the non-regressed structures is also outlined on the digitization pad and quantitated by the computer. […]

Where two headings read alike, the source gives them in different places. Some results are limits rather than exact numbers.

T2 sequence (O00408 whole entry): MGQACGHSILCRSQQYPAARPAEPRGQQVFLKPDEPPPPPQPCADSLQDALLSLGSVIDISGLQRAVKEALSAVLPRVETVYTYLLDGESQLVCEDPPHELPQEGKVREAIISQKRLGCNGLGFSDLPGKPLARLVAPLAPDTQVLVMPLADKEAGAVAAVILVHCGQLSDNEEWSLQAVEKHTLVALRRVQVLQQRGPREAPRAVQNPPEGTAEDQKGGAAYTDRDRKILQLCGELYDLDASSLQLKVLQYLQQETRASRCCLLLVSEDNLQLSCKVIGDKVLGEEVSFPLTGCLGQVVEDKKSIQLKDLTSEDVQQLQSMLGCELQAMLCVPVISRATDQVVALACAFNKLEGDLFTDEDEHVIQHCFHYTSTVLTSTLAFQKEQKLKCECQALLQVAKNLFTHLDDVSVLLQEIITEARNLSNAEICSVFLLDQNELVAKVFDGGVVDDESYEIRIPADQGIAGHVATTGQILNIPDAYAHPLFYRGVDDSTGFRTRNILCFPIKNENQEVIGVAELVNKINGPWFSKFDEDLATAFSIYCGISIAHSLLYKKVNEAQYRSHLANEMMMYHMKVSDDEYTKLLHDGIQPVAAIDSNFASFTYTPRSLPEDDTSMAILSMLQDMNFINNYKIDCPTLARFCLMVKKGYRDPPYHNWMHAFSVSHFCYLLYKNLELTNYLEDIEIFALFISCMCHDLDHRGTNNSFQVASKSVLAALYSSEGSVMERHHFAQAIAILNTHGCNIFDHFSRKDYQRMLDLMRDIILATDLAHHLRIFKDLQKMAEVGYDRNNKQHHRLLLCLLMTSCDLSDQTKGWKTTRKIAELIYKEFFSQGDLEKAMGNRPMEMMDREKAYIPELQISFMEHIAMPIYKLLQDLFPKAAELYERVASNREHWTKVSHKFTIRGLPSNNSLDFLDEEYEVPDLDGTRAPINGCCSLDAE

`Nc1ccn([C@@H]2O[C@@H]3COP(=O)(O)O[C@H]3[C@H]2O)c(=O)n1` [cCMP, cyclic CMP]: in [1] (3H-cGMP 2 μM), the “Competition with cGMP for binding of GST-cGB-PDE5” value is given as “did not compete with cGMP in binding”. As usually defined, the IC50 is the concentration that inhibits the measured activity by half. Read a high IC50 as a need for much substance. In the case of `CC1(C)C(=O)Nc2ccc(C3=NNC(=O)CC3)cc21` [Indolidan], in [2], the IC50 was > 100 µM. Further, in experiment [3], the “Ratio (IC50 PeakA/Peak B)” value was <0.31.

For `COc1cc(/C=C2/C(C)=C(CC(=O)NCc3ccccc3)c3cc(F)ccc32)cc(OC)c1OC` [Compound E, (Z)-5-Fluoro-2-methyl-1-(3,4,5-trimethoxybenzylidene)-3-indenylacetamide, N-benzyl], the “Competitive (with cGMP) binding/inhibition, Peak A” value in experiment [4] is “does competitively (with cGMP) bind to PDE 5 (i.e., Peak A)”. For the same compound, in experiment [2], the “Competitive (with cGMP) binding/inhibition, Peak B” value was “also competitively (with cGMP) binds to PDE Peak B” and it took 0.37 µM to reach half-maximal inhibition (IC50). The “Ratio (IC50 PeakA/Peak B)” value in [3] was 1.0. In addition, the “Competition with cGMP for binding of GST-cGB-PDE5” value in [1] (3H-cGMP 2 μM) is “do not bind to the cGMP binding sites of PDE5”. As for `CCCc1nn(C)c2c(=O)[nH]c(-c3cc(S(=O)(=O)N4CCN(C)CC4)ccc3OCC)nc12` [Sildenafil, sildenafil], the “Inhibition of Peak A activity” value in experiment [4] is given as “inhibited activity of Peak A”. Take `COCc1nc2c([nH]1)c(=O)n(C)c(=O)n2CC(C)C` [8-methoxy-IBMX]: in the experiment with HT-29 cells [5], the “% Apoptosis” value is listed as 2% and the “% Necrosis” value is 1%. Further, the IC50 with HT-29 cells [6] (HT-29, 6 days, SRB assay) was > 200 µM.

With `CCC1=C[C@@H]2CN(C1)Cc1c([nH]c3ccccc13)[C@@](C(=O)OC)(c1cc3c(cc1OC)N(C)[C@H]1[C@@](O)(C(=O)OC)[C@H](OC(C)=O)[C@]4(CC)C=CCN5CC[C@]31[C@@H]54)C2` [vinca alkaloid, vinorelbine], the “% of control growth” value in experiment [7] is 52%. The activity at 0.01 µg/mL in experiment [7] (Homo sapiens, Calu-6, 1 h, read-out: % of control growth) was 56%. For the compound `COc1ccc(C2CNC(=O)C2)cc1OC1CCCC1` (stereo not shown) [Rolipram], the IC50 in [2] was > 100 µM. Moreover, the “Levels of cAMP” value in [8] is listed as “increased cAMP”.

With `O=c1ccn([C@@H]2O[C@@H]3COP(=O)(O)O[C@H]3[C@H]2O)c(=O)[nH]1` [cUMP, cyclic UMP], the “Competition with cGMP for binding of GST-cGB-PDE5” value in experiment [1] (3H-cGMP 2 μM) is given as “did not compete with cGMP in binding”.

As for `O=c1[nH]cnc2c1ncn2[C@@H]1O[C@@H]2COP(=O)(O)O[C@H]2[C@H]1O` [Cyclic IMP], the “Competition with cGMP for binding of GST-cGB-PDE5 at high concentration” value in [1] is listed as “can partially compete with cGMP”. Turning to `Nc1nc2c(nc(Br)n2[C@@H]2O[C@@H]3COP(=O)(O)O[C@H]3[C@H]2O)c(=O)[nH]1` [Compound 8-bromo-cGMP, 8-bromo-cGMP], in experiment [1], the “Competition with cGMP for binding of GST-cGB-PDE5 at high concentration” value is listed as “can partially compete with cGMP”. Take `COc1cc(C=C2C(C)=C(CC(=O)O)c3cc(F)ccc32)cc(OC)c1OC` [Compound B, (Z)-5-Fluoro-2-methyl-1-(3,4,5-trimethoxybenzylidene)-3-acetic acid]: in experiment [1] (3H-cGMP 2 μM), the “Competition with cGMP for binding of GST-cGB-PDE5” value is listed as “do not bind to the cGMP binding sites of PDE5”.

Regarding `Nc1ncnc2c1ncn2[C@@H]1O[C@@H]2COP(=O)(O)O[C@H]2[C@H]1O` [Cyclic AMP], the “Competition with cGMP for binding of GST-cGB-PDE5” value in [1] is “did not compete with cGMP in binding”.

For “5-fluoro-2-methyl-1-(p-methylsulfinylbenzylidene)-3-indenylacetic acid [Sulindac sulfide]”, in experiment [4], the “Competitive (with cGMP) binding/inhibition, Peak A” value was “competitively inhibited both Peaks A and B phosphodiesterases at the same potency”. For the same compound, in [8], the “Increase in levels of cGMP” value is recorded as “greater than 50%” and the “Levels of cAMP” value was “unaffected”. Further, the “Growth inhibition and apoptosis time course” value with HT-29 cells [6] (HT-29, 120 μM, viable cells by trypan blue, apoptosis morphological) is “capable of inhibiting tumor cell growth, and that the effect is accompanied by an increase in apoptosis”. Also, the “Inhibition of premalignant lesions in mammary gland organ culture” value in experiment [9] is “inactive”. Further, the “Competition with cGMP for binding of GST-cGB-PDE5” value in experiment [1] (3H-cGMP 2 μM) is listed as “do not bind to the cGMP binding sites of PDE5”. Turning to `CCOC(=O)C1=C[C@]2(CC)CCCN3CCc4c(n1c1ccccc41)[C@@H]32` [Vinpocetine], the IC50 in [2] was > 100 µM. On to `CCCCOC1C2OP(=O)(O)OCC2OC1n1cnc2c(=O)[nH]c(N)nc21` (stereo not shown) [2′-O-butyl-cGMP], for which the “Competition with cGMP for binding of GST-cGB-PDE5” value in experiment [1] (3H-cGMP 2 μM) was “did not compete with cGMP in binding”. On the same count and under the same terms, as for `CCCCOC1C2OP(=O)(O)OCC2OC1n1cnc2c(N)ncnc21` (stereo not shown) [2′-O-butyl-cAMP], the entry is “did not compete with cGMP in binding”.

Consider `CCCOc1ccccc1-c1nc2nn[nH]c2c(=O)[nH]1` [Zaprinast, zaprinast], for which the “Competition with cGMP for binding of GST-cGB-PDE5” value in [1] (3H-cGMP 2 μM) is “do not bind to the cGMP binding sites of PDE5”.

The values above are taken from patent US6555547B1, “Method for treating a patient with neoplasia by treatment with a vinca alkaloid derivative” (Cell Pathways, Inc., priority 2000, dated 2003).
